The source made the active and inactive calls. The rule behind the calls is not given here.
Legend:
Mus musculus [1] = test: Toxicity in albino Mus musculus (mouse) assessed as change in temperature at extremities at 150 to 900 mg/kg, ip measured within 24 hr; assay type: organism-based; parameters: dose 150-900 mg/kg, route intraperitoneal; settings: in vivo
Rattus norvegicus [2] = test: Effect on SGPT level in Wistar Rattus norvegicus (rat) at 150 mg/kg, po qd after 10 days (reference value: 38.77 +/- 4.25 U/I); assay type: functional
Rattus norvegicus [3] = test: Anti-inflammatory activity in Wistar Rattus norvegicus (rat) assessed as inhibition of carrageenan-induced paw edema at 150 mg/kg, po administered 30 min prior to carrageenan challenge measured at 30 min post carrageenan challenge relative to untreated control; assay type: functional
[4] = Antioxidant activity assessed as reduction of Fe3+ to Fe2+ at 20 to 120 ug/ml after 30 min by spectrophotometric analysis; assay type: functional
Mus musculus [5] = test: Toxicity in albino Mus musculus (mouse) assessed as change in eye color at 150 to 900 mg/kg, ip measured within 24 hr; assay type: organism-based; parameters: dose 150-900 mg/kg, route intraperitoneal; settings: in vivo
Rattus norvegicus [6] = test: Effect on LDH level in Wistar Rattus norvegicus (rat) serum at 50 mg/kg, po qd after 10 days (reference value: 249.89 +/- 13.26 U/I); assay type: functional
Rattus norvegicus [7] = test: Effect on GSH level in Wistar Rattus norvegicus (rat) liver measured per mg of protein at 50 mg/kg, po after 10 days (reference value: 1.84 +/- 0.092 mg); assay type: functional
Rattus norvegicus [8] = test: Effect on glutathione peroxidase level in Wistar Rattus norvegicus (rat) liver measured GSH oxidized per min per mg of protein at 150 mg/kg, po after 10 days (reference value: 47.47 +/- 3.86 mmol); assay type: functional
Rattus norvegicus [9] = test: Effect on GST level in Wistar Rattus norvegicus (rat) liver measured CDNB conjugated per min per mg of protein at 150 mg/kg, po after 10 days (reference value: 0.86 +/- 0.08 mmol); assay type: functional
Rattus norvegicus [10] = test: Effect on ALP level in Wistar Rattus norvegicus (rat) serum at 50 mg/kg, po qd after 10 days (reference value: 39.5 +/- 3.86 U/I); assay type: functional
Rattus norvegicus [11] = test: Effect on glutathione reductase level in Wistar Rattus norvegicus (rat) liver measured NADPH oxidized per min per mg of protein at 150 mg/kg, po after 10 days (reference value: 4.19 +/ 0.42 nmol); assay type: functional
Rattus norvegicus [12] = test: Effect on LDH level in Wistar Rattus norvegicus (rat) serum at 100 mg/kg, po qd after 10 days (reference value: 249.89 +/- 13.26 U/I); assay type: functional
Rattus norvegicus [13] = test: Anti-inflammatory activity in Wistar Rattus norvegicus (rat) assessed as inhibition of carrageenan-induced paw edema at 50 mg/kg, po administered 30 min prior to carrageenan challenge measured at 60 min relative to untreated control; assay type: functional
Rattus norvegicus [14] = test: Effect on GST level in Wistar Rattus norvegicus (rat) liver measured CDNB conjugated per min per mg of protein at 50 mg/kg, po after 10 days (reference value: 0.86 +/- 0.08 mmol); assay type: functional
Rattus norvegicus [15] = test: Antipyretic activity in Wistar Rattus norvegicus (rat) assessed as decrease in Brewer's yeast solution-induced hyperthermia at 50 mg/kg, po measured after 2 hr (reference value: 37 +/- 1.7 degC); assay type: functional
Rattus norvegicus [16] = test: Effect on gamma-glutamyl transferase level in Wistar Rattus norvegicus (rat) serum at 100 mg/kg, po qd after 10 days (reference value: 0.57 +/- 0.04 U/I); assay type: functional
Rattus norvegicus [17] = test: Effect on TBARS level in Wistar Rattus norvegicus (rat) serum at 100 mg/kg, po qd after 10 days (reference value: 0.82 +/- 0.073 nmol/ml); assay type: functional
Mus musculus [18] = test: Toxicity in albino Mus musculus (mouse) assessed as increase in heart rate at 150 to 900 mg/kg, ip measured within 1 to 2 hr; assay type: organism-based; parameters: route intraperitoneal; settings: in vivo
Rattus norvegicus [19] = test: Effect on glutathione peroxidase level in Wistar Rattus norvegicus (rat) liver measured GSH oxidized per min per mg of protein at 100 mg/kg, po after 10 days (reference value: 47.47 +/- 3.86 mmol); assay type: functional
Rattus norvegicus [20] = test: Antipyretic activity in Wistar Rattus norvegicus (rat) assessed as decrease in Brewer's yeast solution-induced hyperthermia at 150 mg/kg, po measured after 3 hr (reference value: 36.8 +/- 1.9 degC); assay type: functional
Rattus norvegicus [21] = test: Anti-inflammatory activity in Wistar Rattus norvegicus (rat) assessed as inhibition of carrageenan-induced paw edema at 50 mg/kg, po administered 30 min prior to carrageenan challenge measured at 120 min relative to untreated control; assay type: functional
Rattus norvegicus [22] = test: Anti-inflammatory activity in Wistar Rattus norvegicus (rat) assessed as inhibition of carrageenan-induced paw edema at 150 mg/kg, po administered 30 min prior to carrageenan challenge measured at 180 min relative to untreated control; assay type: functional
Rattus norvegicus [23] = test: Effect on SGOT level in Wistar Rattus norvegicus (rat) at 50 mg/kg, po qd after 10 days (reference value: 145.50 +/- 13.86 U/I); assay type: functional
Rattus norvegicus [24] = test: Anti-inflammatory activity in Wistar Rattus norvegicus (rat) assessed as inhibition of carrageenan-induced paw edema at 100 mg/kg, po administered 30 min prior to carrageenan challenge measured at 60 min relative to untreated control; assay type: functional
[25] = Toxicity in ip dosed albino Mus musculus (mouse) assessed as mortality measured within 24 hr; assay type: organism-based; settings: in vivo
Rattus norvegicus [26] = test: Effect on TBARS level in Wistar Rattus norvegicus (rat) serum at 150 mg/kg, po qd after 10 days (reference value: 0.82 +/- 0.073 nmol/ml); assay type: functional
Rattus norvegicus [27] = test: Effect on GSH level in Wistar Rattus norvegicus (rat) liver measured per mg of protein at 150 mg/kg, po after 10 days (reference value: 1.84 +/- 0.092 mg); assay type: functional
Rattus norvegicus [28] = test: Anti-inflammatory activity in Wistar Rattus norvegicus (rat) assessed as inhibition of carrageenan-induced paw edema at 150 mg/kg, po administered 30 min prior to carrageenan challenge measured at 60 min relative to untreated control; assay type: functional
[29] = Antioxidant activity assessed as Fe2+ chelating activity at 1.5 mg/ml after 60 min by spectrophotometric analysis; assay type: functional
Mus musculus [30] = test: Toxicity in albino Mus musculus (mouse) assessed as tremor in hind limbs at 650 to 1800 mg/kg, ip measured within 24 hr; assay type: organism-based, Hindlimb; parameters: dose 650-1800 mg/kg, route intraperitoneal; settings: in vivo
Mus musculus [31] = test: Toxicity in albino Mus musculus (mouse) assessed as change in temperature at extremities at 650 to 1800 mg/kg, ip measured within 24 hr; assay type: organism-based; parameters: dose 650-1800 mg/kg, route intraperitoneal; settings: in vivo
[32] = Antioxidant activity assessed as inhibition of linoleic acid peroxidation at 100 mg/l after 24 hr by spectrophotometric analysis; assay type: functional
Mus musculus [33] = test: Toxicity in albino Mus musculus (mouse) assessed as change in eye color at 650 to 1800 mg/kg, ip measured within 24 hr; assay type: organism-based; parameters: dose 650-1800 mg/kg, route intraperitoneal; settings: in vivo
Mus musculus [34] = test: Toxicity in albino Mus musculus (mouse) assessed as change in toes color at 650 to 1800 mg/kg, ip measured within 24 hr; assay type: organism-based; parameters: dose 650-1800 mg/kg, route intraperitoneal; settings: in vivo
Mus musculus [35] = test: Toxicity in albino Mus musculus (mouse) assessed as rapid respiration at 650 to 1800 mg/kg, ip measured within 1 to 2 hr; assay type: organism-based; parameters: route intraperitoneal; settings: in vivo

Structure (SMILES) | Activity (Rattus norvegicus [2]) | inhibition in vivo at 150 mg/kg (Rattus norvegicus [3]) | Activity [4] | Activity (Rattus norvegicus [6]) | Activity (Rattus norvegicus [7]) | Activity (Rattus norvegicus [8]) | Activity (Rattus norvegicus [9]) | Activity (Rattus norvegicus [10]) | Activity (Rattus norvegicus [11]) | Activity (Rattus norvegicus [12]) | inhibition in vivo at 50 mg/kg (Rattus norvegicus [13]) | Activity (Rattus norvegicus [14]) | T (Rattus norvegicus [15]) | Activity (Rattus norvegicus [16]) | Activity (Rattus norvegicus [17]) | Activity (Rattus norvegicus [19]) | T (Rattus norvegicus [20]) | inhibition in vivo at 50 mg/kg (Rattus norvegicus [21]) | inhibition in vivo at 150 mg/kg (Rattus norvegicus [22]) | Activity (Rattus norvegicus [23]) | other results
O=c1c2ccccc2nc2n1NC(c1ccc(O)c(O)c1)C2 (stereo unspecified) | 33.26 U/L | 8.48% | Active | 246.29 U/L | 1.8 mg | 53.45 mmol | 1.34 mmol | 40.77 U/L | 5.14 nmol | 243.46 U/L | 28.1% | 0.97 mmol | 36.5 °C | 0.51 U/L | 0.83 nmol/mL | 51.38 mmol | 36.6 °C | 53.7% | 54.6% | 139.53 U/L | Activity (Mus musculus [1]): Toxic; Activity (Mus musculus [5]): Toxic; Activity (Mus musculus [18]): Toxic; inhibition in vivo at 100 mg/kg (Rattus norvegicus [24]): 38%; LD50 at 24 h [25]: 495 mg/kg; Activity (Rattus norvegicus [26]): 0.8 nmol/mL; Activity (Rattus norvegicus [27]): 2.39 mg; inhibition in vivo at 150 mg/kg (Rattus norvegicus [28]): 34.2%; Activity [29]: 22%
COC(=O)c1ccccc1NC(=O)/C=C/c1ccc(O)c(O)c1 | 40.84 U/L | 37.9% | Active | 240.38 U/L | 1.94 mg | 57.89 mmol | 1.97 mmol | 38.3 U/L | 6.36 nmol | 239.19 U/L | 41.6% | 1.3 mmol | 37 °C | 0.51 U/L | 0.75 nmol/mL | 53.74 mmol | 36.5 °C | 63.8% | 78.9% | 135.62 U/L | Activity (Mus musculus [30]): Toxic; Activity (Mus musculus [31]): Toxic; inhibition [32]: Active; Activity (Mus musculus [33]): Toxic; Activity (Mus musculus [34]): Toxic; inhibition in vivo at 100 mg/kg (Rattus norvegicus [24]): 45.4%; LD50 at 24 h [25]: 1140 mg/kg; Activity (Rattus norvegicus [26]): 0.7 nmol/mL; Activity (Mus musculus [35]): Toxic; Activity (Rattus norvegicus [27]): 2.95 mg; inhibition in vivo at 150 mg/kg (Rattus norvegicus [28]): 52.7%; Activity [29]: 30%
